In ChEMBL document CHEMBL5512609, “HDAC-targeting epigenetic modulators for cancer immunotherapy” (Eur J Med Chem, 2024):
Each block holds one molecule with its values, some of them ahead of it.

Legend:
[1] = target: T1, Protein cereblon/Protein deacetylase HDAC6 (Homo sapiens, UniProt Q9UBN7+Q96SW2); test: PROTAC activity at CRBN/HDAC6 in human MM1.S cells assessed as induction of degradation of HDAC6; assay type: cell-based
Target sequence in this assay (Q9UBN7 whole entry): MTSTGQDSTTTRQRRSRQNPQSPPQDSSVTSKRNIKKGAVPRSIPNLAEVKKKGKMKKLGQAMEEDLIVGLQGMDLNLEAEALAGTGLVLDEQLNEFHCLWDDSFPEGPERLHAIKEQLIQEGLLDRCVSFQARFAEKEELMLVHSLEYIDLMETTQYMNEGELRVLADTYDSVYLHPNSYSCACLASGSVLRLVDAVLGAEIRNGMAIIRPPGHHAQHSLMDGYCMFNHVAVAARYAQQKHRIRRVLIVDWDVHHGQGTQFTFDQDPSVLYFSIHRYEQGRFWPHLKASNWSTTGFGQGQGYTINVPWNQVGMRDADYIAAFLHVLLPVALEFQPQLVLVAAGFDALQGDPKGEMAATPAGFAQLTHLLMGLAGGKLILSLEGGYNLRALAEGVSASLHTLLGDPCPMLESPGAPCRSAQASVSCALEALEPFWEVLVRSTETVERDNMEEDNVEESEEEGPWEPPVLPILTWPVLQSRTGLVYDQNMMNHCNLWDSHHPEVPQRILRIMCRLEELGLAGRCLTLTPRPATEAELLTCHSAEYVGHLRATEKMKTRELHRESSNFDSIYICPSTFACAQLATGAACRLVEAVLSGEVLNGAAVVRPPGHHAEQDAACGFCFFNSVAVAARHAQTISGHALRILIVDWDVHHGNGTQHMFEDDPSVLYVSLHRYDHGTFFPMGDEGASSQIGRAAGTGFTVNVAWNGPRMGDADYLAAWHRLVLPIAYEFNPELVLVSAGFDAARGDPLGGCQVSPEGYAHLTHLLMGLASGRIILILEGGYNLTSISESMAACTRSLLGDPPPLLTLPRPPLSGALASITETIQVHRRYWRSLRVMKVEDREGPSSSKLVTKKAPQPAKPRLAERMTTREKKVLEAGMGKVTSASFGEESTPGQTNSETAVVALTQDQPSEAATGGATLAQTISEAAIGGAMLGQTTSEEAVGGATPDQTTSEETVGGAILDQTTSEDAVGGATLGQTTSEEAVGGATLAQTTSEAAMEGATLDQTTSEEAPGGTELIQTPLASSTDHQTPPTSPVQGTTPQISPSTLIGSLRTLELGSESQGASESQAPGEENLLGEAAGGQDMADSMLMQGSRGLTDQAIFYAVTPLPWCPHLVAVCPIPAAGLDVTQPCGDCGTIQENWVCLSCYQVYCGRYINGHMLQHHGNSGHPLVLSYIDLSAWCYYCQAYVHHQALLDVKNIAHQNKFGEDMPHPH
Target sequence in this assay (Q96SW2 whole entry): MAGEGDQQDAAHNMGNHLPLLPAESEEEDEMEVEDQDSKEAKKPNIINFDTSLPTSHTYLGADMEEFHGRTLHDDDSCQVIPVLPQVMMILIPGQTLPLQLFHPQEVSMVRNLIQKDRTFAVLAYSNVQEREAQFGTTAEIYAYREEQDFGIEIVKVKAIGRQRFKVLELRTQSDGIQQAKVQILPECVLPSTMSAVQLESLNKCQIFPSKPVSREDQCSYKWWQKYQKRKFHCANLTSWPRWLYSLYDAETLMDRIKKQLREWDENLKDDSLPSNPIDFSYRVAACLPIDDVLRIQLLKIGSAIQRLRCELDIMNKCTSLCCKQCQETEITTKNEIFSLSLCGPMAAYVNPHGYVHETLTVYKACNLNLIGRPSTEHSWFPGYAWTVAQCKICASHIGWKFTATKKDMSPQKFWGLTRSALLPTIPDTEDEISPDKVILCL

[2] = target: T1, Protein cereblon/Protein deacetylase HDAC6; test: PROTAC activity at CRBN/HDAC6 in human MM1.S cells assessed as induction of degradation of HDAC6 by measuring maximum efficacy relative to control; assay type: cell-based
Target sequence in this assay (Q96SW2 whole entry, looked up): as the sequence (Q96SW2 whole entry) above
Target sequence in this assay (Q9UBN7 whole entry, looked up): as the sequence (Q9UBN7 whole entry) above

[3] = target: T2, von Hippel-Lindau disease tumor suppressor/Histone deacetylase 1 (Homo sapiens, UniProt Q13547+P40337); test: PROTAC activity at VHL/HDAC1 in human HCT-116 cells assessed as degradation of HDAC1 incubated for 24 hrs by immunoblot analysis; assay type: cell-based
[4] = target: T2, von Hippel-Lindau disease tumor suppressor/Histone deacetylase 1; test: PROTAC activity at VHL/HDAC1 in human HCT-116 cells assessed as degradation of HDAC1 by measuring maximum efficacy incubated for 24 hrs by immunoblot analysis relative to control; assay type: cell-based
[5] = target: T3, von Hippel-Lindau disease tumor suppressor/Histone deacetylase 2 (Homo sapiens, UniProt Q92769+P40337); test: PROTAC activity at VHL/HDAC2 in human HCT-116 cells assessed as degradation of HDAC2 by measuring maximum efficacy incubated for 24 hrs by immunoblot analysis relative to control; assay type: cell-based
[6] = target: Programmed cell death protein 1/Programmed cell death 1 ligand 1 (Homo sapiens, UniProt Q15116+Q9NZQ7); test: Inhibition of PD-1/PDL1 interaction (unknown origin) in by HTRF assay; assay type: protein-complex assay
[7] = target: T1, Protein cereblon/Protein deacetylase HDAC6; test: PROTAC activity at CRBN/HDAC6 in human MM1.S cells assessed as HDAC6 degradation; assay type: cell-based
Target sequence in this assay (Q9UBN7 whole entry): as above
Target sequence in this assay (Q96SW2 whole entry): as the sequence (Q96SW2 whole entry) above

[8] = target: T1, Protein cereblon/Protein deacetylase HDAC6; test: PROTAC activity at CRBN/HDAC6 in human HL-60 cells assessed as HDAC6 degradation; assay type: cell-based
Target sequence in this assay (Q9UBN7 whole entry): as the sequence (Q9UBN7 whole entry) above
Target sequence in this assay (Q96SW2 whole entry): as the sequence (Q96SW2 whole entry) above

[9] = target: T1, Protein cereblon/Protein deacetylase HDAC6; test: PROTAC activity at CRBN/HDAC6 in human HL-60 cells assessed as HDAC6 degradation by measuring maximum efficacy relative to control; assay type: cell-based
Target sequence in this assay (Q96SW2 whole entry, looked up): as the sequence (Q96SW2 whole entry) above
Target sequence in this assay (Q9UBN7 whole entry, looked up): as the sequence (Q9UBN7 whole entry) above

[10] = Inhibition of LSD1/HDAC1/CoREST complex (unknown origin) using Boc-(Ac)Lys-AMC as substrate measured after 20 mins by fluorescence based analysis; set-up: species or system Homo sapiens
[11] = Inhibition of LSD1/HDAC2/CoREST complex (unknown origin) using Boc-(Ac)Lys-AMC as substrate measured after 20 mins by fluorescence based analysis; set-up: species or system Homo sapiens
[12] = Inhibition of LSD1/HDAC3/CoREST complex (unknown origin) using Boc-(Ac)Lys-AMC as substrate measured after 20 mins by fluorescence based analysis; set-up: species or system Homo sapiens
[13] = target: T2, von Hippel-Lindau disease tumor suppressor/Histone deacetylase 1; test: PROTAC activity at VHL/HDAC1 in human HCT-116 cells assessed as degradation of HDAC1 incubated for 24 hrs by Western blot analysis; assay type: cell-based
[14] = target: T3, von Hippel-Lindau disease tumor suppressor/Histone deacetylase 2; test: PROTAC activity at VHL/HDAC2 in human HCT-116 cells assessed as degradation of HDAC2 incubated for 24 hrs by Western blot analysis; assay type: cell-based
[15] = target: T4, von Hippel-Lindau disease tumor suppressor/Histone deacetylase 3 (Homo sapiens, UniProt O15379+P40337); test: PROTAC activity at VHL/HDAC3 in human HCT-116 cells assessed as degradation of HDAC3 incubated for 24 hrs by Western blot analysis; assay type: cell-based
[16] = target: T4, von Hippel-Lindau disease tumor suppressor/Histone deacetylase 3; test: Protac activity at VHL/HDAC3 in human MDA-MB-468 cells assessed as HDAC3 degradation measured after 14 hrs by Western blot analysis; assay type: cell-based
[17] = test system: MDA-MB-468; test: Antiproliferative activity against human MDA-MB-468 cells; assay type: functional, cell-based
[18] = target: T1, Protein cereblon/Protein deacetylase HDAC6; test: PROTAC activity at CRBN/HDAC6 in human MINO cells assessed as HDAC6 degradation incubated for 18 hrs by immunoblot analysis; assay type: cell-based
Target sequence in this assay (Q9UBN7 whole entry): as above
Target sequence in this assay (Q96SW2 whole entry): as the sequence (Q96SW2 whole entry) above

[19] = target: T1, Protein cereblon/Protein deacetylase HDAC6; test: PROTAC activity at CRBN/HDAC6 in human JeKo-1 cells assessed as HDAC6 degradation incubated for 18 hrs by immunoblot analysis; assay type: cell-based
Target sequence in this assay (Q9UBN7 whole entry): as the sequence (Q9UBN7 whole entry) above
Target sequence in this assay (Q96SW2 whole entry): as the sequence (Q96SW2 whole entry) above

[20] = target: T1, Protein cereblon/Protein deacetylase HDAC6; test: PROTAC activity at CRBN/HDAC6 in human HUVEC cells assessed as HDAC6 degradation incubated for 18 hrs by immunoblot analysis; assay type: cell-based
Target sequence in this assay (Q9UBN7 whole entry): as the sequence (Q9UBN7 whole entry) above
Target sequence in this assay (Q96SW2 whole entry): as the sequence (Q96SW2 whole entry) above

[21] = target: T1, Protein cereblon/Protein deacetylase HDAC6; test: PROTAC activity at CRBN/HDAC6 in human MDA-MB-231 cells assessed as HDAC6 degradation incubated for 18 hrs by immunoblot analysis; assay type: cell-based
[22] = target: T1, Protein cereblon/Protein deacetylase HDAC6; test: PROTAC activity at CRBN/HDAC6 in human MM1.S cells assessed as HDAC6 degradation incubated for 18 hrs by immunoblot analysis; assay type: cell-based
[23] = target: T1, Protein cereblon/Protein deacetylase HDAC6; test: PROTAC activity at CRBN/HDAC6 in human MM1.S cells assessed as HDAC6 degradation by measuring maximum efficacy incubated for 18 hrs by immunoblot analysis relative to control; assay type: cell-based
Target sequence in this assay (Q96SW2 whole entry, looked up): as the sequence (Q96SW2 whole entry) above
Target sequence in this assay (Q9UBN7 whole entry, looked up): as the sequence (Q9UBN7 whole entry) above

[24] = target: Protein cereblon/Histone deacetylase 8 (Homo sapiens, UniProt Q9BY41+Q96SW2); test: PROTAC activity at CRBN/HDAC8 in human Jurkat T cells assessed as induction of degradation of HDAC8 by Western blot analysis; assay type: cell-based

Programmed cell death protein 1/Programmed cell death 1 ligand 1, sequence (Q15116 whole entry): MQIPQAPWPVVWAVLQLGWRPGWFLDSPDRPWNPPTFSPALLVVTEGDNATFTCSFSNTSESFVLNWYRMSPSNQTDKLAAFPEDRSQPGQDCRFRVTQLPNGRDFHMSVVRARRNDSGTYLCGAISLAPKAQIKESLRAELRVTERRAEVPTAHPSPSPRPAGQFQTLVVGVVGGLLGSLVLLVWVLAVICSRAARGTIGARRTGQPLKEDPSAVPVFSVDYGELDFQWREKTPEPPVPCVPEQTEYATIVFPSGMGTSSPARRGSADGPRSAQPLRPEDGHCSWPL
Programmed cell death protein 1/Programmed cell death 1 ligand 1, sequence (Q9NZQ7 whole entry): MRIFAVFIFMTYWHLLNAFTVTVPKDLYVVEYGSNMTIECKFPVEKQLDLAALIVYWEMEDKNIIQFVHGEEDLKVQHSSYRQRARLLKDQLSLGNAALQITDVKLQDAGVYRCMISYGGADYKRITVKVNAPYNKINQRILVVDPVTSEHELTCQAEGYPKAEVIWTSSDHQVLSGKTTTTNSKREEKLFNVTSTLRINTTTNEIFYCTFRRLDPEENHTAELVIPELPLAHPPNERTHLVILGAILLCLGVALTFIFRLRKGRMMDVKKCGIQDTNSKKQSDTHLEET

SMILES: Cc1ncsc1-c1ccc(CNC(=O)[C@H]2C[C@H](O)CN2C(=O)[C@H](NC(=O)CCn2cc(CCCOC(=O)NCc3ccc(C(=O)Nc4ccc(F)cc4N)cc3)nn2)C(C)(C)C)cc1
- DC50 [3]: 2840 nM
- Emax [4]: 62%
- Emax [5]: 62%

SMILES: Cc1c(COc2ccc(CNCCC(=O)NO)c(F)c2)cccc1-c1ccccc1
- IC50 [6]: 120 nM

SMILES: Cc1c(COc2ccc(CNCCCCCC(=O)NO)c(F)c2)cccc1-c1ccccc1
- IC50 [6]: 62 nM

SMILES: COc1cc(OCc2cccc(-c3ccccc3)c2C)cc(OC)c1CN(C)CCCC(=O)NO
- IC50 [6]: 104 nM

SMILES: COc1cc(C(=O)NO)ccc1NCc1ccc(OCc2cn(CCCCCC(=O)Nc3cccc4c3C(=O)N(C3CCC(=O)NC3=O)C4=O)nn2)cc1 (stereo not drawn)
- DC50 [24]: 250 nM

SMILES: Cc1c(COc2ccc(CNCCC(=O)NO)c(OCc3cccc(C#N)c3)c2)cccc1-c1ccccc1
- IC50 [6]: 82 nM

SMILES: COc1cc(OCc2cccc(-c3ccccc3)c2C)cc(OC)c1CNCCCCCCC(=O)NO
- IC50 [6]: 85 nM

Results, then the molecule that gave them:

- DC50 [1]: 1.6 nM
- Emax [2]: 86%
SMILES: CCCCN(Cc1ccc(C(=O)NO)cc1)C(=O)Nc1ccc(NC(=O)CCCCCc2cn(CCOCCNc3cccc4c3C(=O)N(C3CCC(=O)NC3=O)C4=O)nn2)cc1 (stereo not drawn)

- DC50 [7]: 3.8 nM
- DC50 [8]: 19.4 nM
- Emax [9]: 92.2%
SMILES: Cc1nc2cc(NC(=O)CCCCCCCNC(=O)COc3cccc4c3C(=O)N(C3CCC(=O)NC3=O)C4=O)ccc2n1Cc1ccc(C(=O)NO)cc1F (stereo not drawn)

- IC50 [10]: 16800 nM
- IC50 [11]: 16800 nM
- IC50 [12]: 16800 nM
- DC50 [13]: 1000 nM
- DC50 [14]: 1000 nM
- DC50 [15]: 1000 nM
SMILES: Cc1ncsc1-c1ccc(CNC(=O)[C@H]2C[C@H](O)CN2C(=O)[C@H](NC(=O)CCCCCCCCCCC(=O)Nc2ccc(C(=O)Nc3ccccc3N)cc2)C(C)(C)C)cc1

- DC50 [16]: 42 nM
- IC50 [17]: 52 nM
SMILES: CCCNNC(=O)c1ccc(-c2ccc(NC(=O)CCCCCCC(=O)N[C@H](C(=O)N3C[C@H](O)C[C@H]3C(=O)N[C@H](C)c3ccc(-c4scnc4C)cc3)C(C)(C)C)cc2)cc1

- DC50 [18]: 3.2 nM
- DC50 [19]: 3.2 nM
- DC50 [20]: 3.2 nM
- DC50 [21]: 3.2 nM
- DC50 [22]: 1.6 nM
- Emax [23]: 86%
SMILES: CCCCN(Cc1ccc(C(=O)NO)cc1)C(=O)Nc1ccc(OCCCCCCCn2cc(CCCCCNc3cccc4c3C(=O)N(C3CCC(=O)NC3=O)C4=O)nn2)cc1 (stereo not drawn)
